Source: US11352352B2, “Aminopyrimidine compound, preparation method therefor and use thereof” (BEIJING ADAMADLE BIOTECHNOLOGY LIMITED LIABILITY COMPANY, priority 2017, dated 2022)

Legend:
P-gp = target: T1, P-gp (Homo sapiens, UniProt P08183); assay: P-gp substrate evaluation experiment (MDCKII-MDR1 Transwell drug penetration test); type: in vitro ADME; conditions: dog, MDCK-MDR1, pH 7.4; read-out: ER (Efflux Ratio)
T1 construct: expressed in transfected cells; host or cells: MDCKII-MDR1 (MDCKII canine kidney cells expressing MDR1)
Method: P-gp Substrate Evaluation Experiment
Cell Culture • 1) High glucose DMEM medium containing L-glutamine was used and 10% fetal bovine serum, 0.1 mg/mL streptomycin and 0.6 mg/mL penicillin were added. • 2) MDCKII-MDR1 was cultured in a T-75 cell culture bottle. The incubator was set at the condition of 37° C., 5% CO2 and 95% relative humidity. Cells could be inoculated in Transwell when the cell confluence reached 70-90%. • 3) Before cell plant, 50 μL cell culture medium was added to each well in the upper chamber of the Transwell, and […] cell culture medium was added to the lower chamber of the Transwell.
Inoculation of MDCKII-MDR1 Cells • 1) Cell suspension was added to the upper chamber of the 96-well Transwell plate with […] each well, and the final inoculation density was 5.45×10^5 cells/cm^2. • 2) The medium was changed 48 hours after inoculation, the culture was carried out for 4-7 days, and the medium was changed every other day.
Evaluation of Cell Monolayer Integrity • 1) After 4-7 days of culture, MDCKII-MDR1 and MDKII should merge and differentiate completely. At this time, they could be applied to penetration test. • 2) The resistance of cell monolayer was measured by a resistance meter (Millipore, USA) and the resistance of each well was recorded. • 3) After finishing the detection, the Transwell plate was put back into the incubator. • 4) Resistance value was calculated: Resistance measured (ohms)×layer area (cm^2)=TEER value (ohm·cm^2)
If TEER value was less than 42 ohms·cm^2, the well can not be used for penetration testing.
Drug Penetration Test • 1) The MDCKII-MDR1 Transwell plate was taken out from the incubator. The cell monolayer was rinsed with HBSS buffer (25 mM HEPES, pH 7.4) twice and incubated for 30 minutes at 37° C. • 2) The transport rate of compounds from the top to the bottom was determined. […] 70 μL supernatant was drawn, diluted with equal volume of water and then subjected to LC-MS/MS analysis. All samples were prepared in three parallel ways. • 6) The cell monolayer integrity after 2-hour incubation was evaluated by leakage of fluorescent yellow, HBSS (25 mM HEPES, pH 7.4) was used to dilute the stock solution of fluorescent yellow till the final concentration was 100 μM. 100 μL fluorescent yellow solution was added to each well in the upper chamber of the Transwell plate and 300 μL HBSS (25 mM HEPES, pH 7.4) was added to each well in the lower chamber of the Transwell plate. After incubation at 37° C. for 30 minutes, 80 μL solution was drawn respectively from each well in the upper and lower chamber to a new 96-well plate. The fluorescence was determined at 485 nm as excitation wavelength and 530 nm as emission wavelength by using a microplate reader.
Data calculation was carried out through Excel, the apparent permeability index (Papp, cm/s) of compounds was calculated through the formula shown as follow: […]
wherein, the membrane area in the formula is the membrane area of Transwell-96 plate (0.143 cm^2); the unit of incubation time is second (s).
Efflux ratio was calculated through the formula shown as follow: […]

PC-9 = assay: Cell proliferation inhibition experiment, CellTiter-Glo (CTG) method; type: cell-based; conditions: Homo sapiens, PC-9, 72 h, PC-9 cells, 3 days
Method in brief: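 Cells in log-phase growth (viability above 90% by trypan blue) were seeded at 90 μL per well in black-walled, clear-bottom 96-well plates and incubated overnight at 37° C., 5% CO2. A T0 plate was read the next day. Test compounds were added at nine concentrations in triplicate with a solvent control. Viability was measured by CellTiter-Glo luminescence on EnVision, and IC50 came from non-linear S-curve fitting in GraphPad Prism 5.0.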

NCI-H1975 = assay: as above; type: cell-based; conditions: for IC50: Homo sapiens, NCI-H1975, 72 h, NCI-H1975 cells, CTG, 3 days; for A-431/NCI-H1975 Selectivity: ratio of A-431 IC50 to NCI-H1975 IC50
Method in brief: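 NCI-H1975 cells with viability above 90% by trypan blue were seeded at 90 μL per well in black 96-well plates and incubated overnight at 37° C., 5% CO2. Compounds were added at nine concentrations in triplicate, and viability was measured with CellTiter-Glo luminescence on EnVision. IC50 came from non-linear S-curve fitting in GraphPad Prism 5.0.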

A-431 = assay: as above; type: cell-based; conditions: Homo sapiens, A-431, 72 h, A-431 cells, 3 days
Method in brief: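 IC50 values come from sigmoidal dose-response fits of percent survival, measured by CellTiter-Glo luminescence after 3 days' culture with compound. Nine-point, threefold series in triplicate, starting at 30 μM for A-431 and at 1.111 μM for NCI-H1975 and PC-9.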

T1 sequence (P08183 whole entry): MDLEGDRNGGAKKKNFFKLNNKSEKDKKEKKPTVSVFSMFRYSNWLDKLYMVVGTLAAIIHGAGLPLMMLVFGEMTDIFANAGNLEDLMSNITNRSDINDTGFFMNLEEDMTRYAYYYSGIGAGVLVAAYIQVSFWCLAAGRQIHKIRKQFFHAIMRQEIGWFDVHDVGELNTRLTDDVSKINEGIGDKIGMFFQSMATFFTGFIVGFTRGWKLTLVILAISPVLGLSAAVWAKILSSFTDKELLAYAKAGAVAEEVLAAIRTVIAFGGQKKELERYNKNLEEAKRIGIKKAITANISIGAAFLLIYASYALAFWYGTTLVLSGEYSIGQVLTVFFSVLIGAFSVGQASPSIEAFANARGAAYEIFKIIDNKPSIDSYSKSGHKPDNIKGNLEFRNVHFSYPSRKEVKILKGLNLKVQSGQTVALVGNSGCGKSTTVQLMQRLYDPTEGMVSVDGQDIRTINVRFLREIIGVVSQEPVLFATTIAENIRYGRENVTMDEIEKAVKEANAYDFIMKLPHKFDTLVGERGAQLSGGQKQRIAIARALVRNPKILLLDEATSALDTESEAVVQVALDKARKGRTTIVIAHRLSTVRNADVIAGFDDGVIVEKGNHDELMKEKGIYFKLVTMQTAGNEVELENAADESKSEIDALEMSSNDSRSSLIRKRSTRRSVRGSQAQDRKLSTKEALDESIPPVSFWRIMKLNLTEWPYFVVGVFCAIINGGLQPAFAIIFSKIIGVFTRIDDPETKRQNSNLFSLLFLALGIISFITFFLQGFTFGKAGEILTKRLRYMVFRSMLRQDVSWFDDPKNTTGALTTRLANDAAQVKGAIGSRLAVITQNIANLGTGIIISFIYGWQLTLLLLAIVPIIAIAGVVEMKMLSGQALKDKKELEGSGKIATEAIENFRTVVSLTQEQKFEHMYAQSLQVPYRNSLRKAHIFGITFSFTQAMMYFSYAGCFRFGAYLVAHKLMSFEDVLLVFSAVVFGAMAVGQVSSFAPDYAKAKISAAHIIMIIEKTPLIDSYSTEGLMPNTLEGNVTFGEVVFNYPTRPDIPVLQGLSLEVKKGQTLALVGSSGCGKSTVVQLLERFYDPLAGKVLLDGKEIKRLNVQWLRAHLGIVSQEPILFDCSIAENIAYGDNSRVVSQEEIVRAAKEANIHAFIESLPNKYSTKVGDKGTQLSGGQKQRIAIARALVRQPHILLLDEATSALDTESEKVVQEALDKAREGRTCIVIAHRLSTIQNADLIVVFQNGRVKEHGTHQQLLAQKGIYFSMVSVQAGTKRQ

Compound	efflux ratio at 2 h (P-gp)	IC50 (PC-9) [nM]	IC50 (NCI-H1975) [nM]	A-431/NCI-H1975 Selectivity (NCI-H1975)	IC50 (A-431) [nM]
C=CC(=O)Nc1cc(Nc2cc(-c3ccc4c(cnn4C)c3)ncn2)c(OC(F)F)cc1N1CCN(CCN(C)C)CC1 [compound 115]	41.9	9	5.3	100.5	533
C=CC(=O)Nc1cc(Nc2cc(-c3ccc4c(cnn4CC)c3)ncn2)c(OC)cc1N1CCN(CCN(C)C)CC1 [compound 116]	67.9	8.2	9.1	71.9	654
C=CC(=O)Nc1cc(Nc2cc(-c3ccc4c(cnn4C)c3)ncn2)c(OC)cc1N1CCC(N2CCN(C(C)=O)CC2)CC1 [compound 129]	55.7	13.1	8	93.3	746
COc1cc(N(C)CCN(C)C)c(NC(=O)/C=C/CN(C)C)cc1Nc1cc(-c2ccc3c(cnn3C)c2)ncn1 [compound 131]	51.7	14.8	9.6	60.2	578
C=CC(=O)Nc1cc(Nc2cc(-c3ccc4c(cnn4C)c3)ncn2)c(OC)cc1N(C)CCN(C)C(C)C [compound 138]	2.17	12.3	16.8	56.3	946
C=CC(=O)Nc1cc(Nc2cc(-c3ccc4c(cnn4C)c3)ncn2)c(OC)cc1N1CCC(N2CCCCC2)CC1 [compound 144]	11.6	16.4	6.8	84.1	572
C=CC(=O)Nc1cc(Nc2cc(-c3ccc4cnn(C)c4c3)ncn2)c(OC)cc1N1CCC(N2C[C@@H](C)O[C@@H](C)C2)CC1 [compound 155]	0.93	6	13.6	64.2	874
C=CC(=O)Nc1cc(Nc2cc(-c3ccc4cnn(C)c4c3)ncn2)c(OC)cc1N1CCC(N2CCCC2)CC1 [compound 158]	15.3	4.9	9.4	72.4	680
C=CC(=O)Nc1cc(Nc2cc(-c3ccc4cnn(C)c4c3)ncn2)c(OC(F)F)cc1N1CCC(N2CCCC2)CC1 [compound 164]	34.4	23.2	12.6	46.9	591
C=CC(=O)Nc1cc(Nc2cc(-c3ccc4c(cnn4C)c3)ncn2)c(OC(F)F)cc1N1CCC(N(CC)CC)CC1 [compound 168]	23.1	21.5	6.8	85.9	584
C=CC(=O)Nc1c(N(C)CCN(C)C)cc(OC)c(Nc2cc(-c3ccc4cnn(C)c4c3)ncn2)c1F [compound 172]	43.9	16.3	18.6	51.3	954
C=CC(=O)Nc1cc(Nc2cc(-c3ccc4cnn(C)c4c3)ncn2)c(OC)cc1N1CCC(N(C)C)CC1 [compound 173]	32.2	7.3	22.7	46.5	1050
C=CC(=O)Nc1cc(Nc2cc(-c3ccc4cnn(C)c4c3)ncn2)c(OC(F)F)cc1N(C)CCN(C)C [compound 176]	3.98	4.8	21.2	50.9	1080
C=CC(=O)Nc1cc(Nc2cc(-c3ccc4cnn(C)c4c3)ncn2)c(OC)cc1N1CCC(N2CCCCC2)CC1 [compound 179]	17.1	2.9	16.2	60.7	984
C=CC(=O)Nc1cc(Nc2cc(-c3ccc4cnn(C)c4c3)ncn2)c(OC)cc1N(C)CCN(C)CC [compound 180]	3.07	3.8	25.1	35.6	894
C=CC(=O)Nc1cc(Nc2cc(-c3ccc4cnn(C)c4c3)ncn2)c(OC)cc1N1CCC(N2CCC(OC)C2)CC1 (stereo not drawn) [compound 203]	6.51	7.2	8.1	121.2	982
C=CC(=O)Nc1cc(Nc2cc(-c3ccc4c(cnn4C)c3)ncn2)c(OC)cc1N1CCC(N2CC(OC)C2)CC1 [compound 206]	5.87	12.1	8.1	95.4	773
C=CC(=O)Nc1cc(Nc2cc(-c3ccc4c(cnn4C)c3)ncn2)c(OC)cc1N1CCC(N2CCN(C3COC3)CC2)CC1 [compound 210]	11.4	11.7	10.4	94.5	983
C=CC(=O)Nc1cc(Nc2cc(-c3ccc4ncsc4c3)ncn2)c(OC)cc1N1CCN(CCN(C)C)CC1 [compound 250]	15.8	12.7	12.5	81.9	1020
C=CC(=O)Nc1cc(Nc2cc(-c3ccc4ncsc4c3)ncn2)c(OC)cc1NCCN(C)C [compound 251]	42.6	7	12.5	88.2	1100
C=CC(=O)Nc1cc(Nc2cc(-c3ccc4c(cnn4C)c3)ncn2)c(OC)cc1N1CCN(CCO)CC1 [compound 267]	14.6	29.3	16.1	64.4	1040
